The source made the active and inactive calls. Cut-off read from the data, not from the text of the source, for most assays here: actives have a measured Kd and inactives only a lower limit.
Experiments:
[1] = molecular target: Tyrosine-protein kinase SYK (Homo sapiens, UniProt P43405)
Deoxycytidine kinase = Deoxycytidine kinase (Homo sapiens, UniProt P27707)
[2] = molecular target: Serine/threonine-protein kinase N1 (Homo sapiens, UniProt Q16512)
TGF-beta receptor type-1 = molecular target: T1, TGF-beta receptor type-1 (Homo sapiens, UniProt P36897)
T1 sequence (P36897 whole entry): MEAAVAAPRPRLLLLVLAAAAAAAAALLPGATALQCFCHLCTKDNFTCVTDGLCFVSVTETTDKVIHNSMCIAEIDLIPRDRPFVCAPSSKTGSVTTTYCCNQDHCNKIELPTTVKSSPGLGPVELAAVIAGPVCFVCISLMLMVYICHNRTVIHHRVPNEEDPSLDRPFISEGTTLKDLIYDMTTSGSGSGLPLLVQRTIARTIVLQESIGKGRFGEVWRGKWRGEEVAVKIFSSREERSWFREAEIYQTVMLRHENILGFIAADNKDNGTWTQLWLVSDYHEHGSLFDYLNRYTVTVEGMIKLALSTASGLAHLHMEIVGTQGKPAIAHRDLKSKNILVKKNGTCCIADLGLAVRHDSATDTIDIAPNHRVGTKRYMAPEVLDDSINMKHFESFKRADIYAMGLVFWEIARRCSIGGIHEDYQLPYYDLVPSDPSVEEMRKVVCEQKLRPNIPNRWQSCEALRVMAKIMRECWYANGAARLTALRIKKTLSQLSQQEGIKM

Scaffold protein ILK = molecular target: T2, Scaffold protein ILK (Homo sapiens, UniProt Q13418)
T2 sequence (Q13418 whole entry): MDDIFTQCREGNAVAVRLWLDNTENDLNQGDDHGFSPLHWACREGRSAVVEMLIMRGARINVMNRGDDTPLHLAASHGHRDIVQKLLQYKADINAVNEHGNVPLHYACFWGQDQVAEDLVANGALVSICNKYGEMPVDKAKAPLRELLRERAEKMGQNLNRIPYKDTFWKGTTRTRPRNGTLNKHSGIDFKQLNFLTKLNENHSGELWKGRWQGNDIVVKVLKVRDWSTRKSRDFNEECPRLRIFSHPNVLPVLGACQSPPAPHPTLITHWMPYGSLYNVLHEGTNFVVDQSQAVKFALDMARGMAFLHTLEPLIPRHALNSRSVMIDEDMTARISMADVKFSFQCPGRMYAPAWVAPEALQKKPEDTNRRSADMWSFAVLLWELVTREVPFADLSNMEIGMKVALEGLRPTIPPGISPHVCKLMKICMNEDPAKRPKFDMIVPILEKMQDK

[3] = molecular target: Casein kinase I isoform gamma-1 (Homo sapiens, UniProt Q9HCP0)
[4] = molecular target: T3, Serine/threonine-protein kinase Nek9 (Homo sapiens, UniProt Q8TD19)
T3 sequence (Q8TD19 whole entry): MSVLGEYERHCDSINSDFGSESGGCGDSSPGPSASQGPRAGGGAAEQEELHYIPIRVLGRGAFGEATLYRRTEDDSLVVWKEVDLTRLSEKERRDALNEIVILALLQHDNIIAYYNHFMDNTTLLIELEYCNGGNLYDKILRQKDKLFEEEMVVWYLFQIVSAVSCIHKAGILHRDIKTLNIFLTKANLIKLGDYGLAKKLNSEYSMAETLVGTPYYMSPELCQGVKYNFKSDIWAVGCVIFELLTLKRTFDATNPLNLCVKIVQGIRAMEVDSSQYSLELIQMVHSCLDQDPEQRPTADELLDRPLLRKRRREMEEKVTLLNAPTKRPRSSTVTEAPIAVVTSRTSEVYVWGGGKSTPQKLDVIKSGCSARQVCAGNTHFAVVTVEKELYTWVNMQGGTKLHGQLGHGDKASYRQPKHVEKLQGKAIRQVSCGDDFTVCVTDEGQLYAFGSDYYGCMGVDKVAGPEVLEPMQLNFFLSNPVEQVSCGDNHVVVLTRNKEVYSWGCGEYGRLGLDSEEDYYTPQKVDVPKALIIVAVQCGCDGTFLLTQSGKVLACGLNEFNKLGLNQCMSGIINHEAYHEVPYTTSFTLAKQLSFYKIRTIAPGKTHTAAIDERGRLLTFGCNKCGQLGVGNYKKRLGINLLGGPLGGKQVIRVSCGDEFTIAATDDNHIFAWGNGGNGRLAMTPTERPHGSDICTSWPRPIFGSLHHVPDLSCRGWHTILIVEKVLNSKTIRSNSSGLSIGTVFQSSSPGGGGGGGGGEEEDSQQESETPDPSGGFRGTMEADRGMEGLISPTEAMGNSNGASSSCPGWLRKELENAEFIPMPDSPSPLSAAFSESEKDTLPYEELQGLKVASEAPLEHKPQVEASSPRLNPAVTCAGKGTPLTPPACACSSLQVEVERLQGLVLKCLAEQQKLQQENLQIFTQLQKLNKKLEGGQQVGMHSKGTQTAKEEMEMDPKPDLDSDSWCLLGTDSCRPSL

[5] = molecular target: Casein kinase II subunit alpha' (Homo sapiens, UniProt P19784)
[6] = molecular target: Serine/threonine-protein kinase MRCK beta (Homo sapiens, UniProt Q9Y5S2)
Aurora kinase B = Aurora kinase B (Homo sapiens, UniProt Q96GD4)
[7] = molecular target: Bone morphogenetic protein receptor type-1A (Homo sapiens, UniProt P36894)
[8] = molecular target: Casein kinase I isoform alpha (Homo sapiens, UniProt P48729)
Note: in the data inactive means no Kd found up to 30 µM.

Chain of Bone morphogenetic protein receptor type-1A (P36894 whole entry, canonical isoform): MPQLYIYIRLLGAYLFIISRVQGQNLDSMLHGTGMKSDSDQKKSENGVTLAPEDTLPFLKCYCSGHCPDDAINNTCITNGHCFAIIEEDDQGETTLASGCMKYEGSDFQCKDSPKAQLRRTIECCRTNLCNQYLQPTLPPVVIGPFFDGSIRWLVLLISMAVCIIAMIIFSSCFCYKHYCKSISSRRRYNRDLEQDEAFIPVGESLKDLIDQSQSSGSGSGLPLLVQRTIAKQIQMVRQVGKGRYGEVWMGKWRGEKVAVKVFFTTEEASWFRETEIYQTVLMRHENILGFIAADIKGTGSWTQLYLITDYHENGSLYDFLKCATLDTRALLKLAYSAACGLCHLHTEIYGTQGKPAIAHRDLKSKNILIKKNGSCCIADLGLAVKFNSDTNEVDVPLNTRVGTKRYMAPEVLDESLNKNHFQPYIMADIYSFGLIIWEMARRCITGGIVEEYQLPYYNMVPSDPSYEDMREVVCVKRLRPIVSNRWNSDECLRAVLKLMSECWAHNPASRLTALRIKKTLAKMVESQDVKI
Chain of Deoxycytidine kinase (P27707 whole entry): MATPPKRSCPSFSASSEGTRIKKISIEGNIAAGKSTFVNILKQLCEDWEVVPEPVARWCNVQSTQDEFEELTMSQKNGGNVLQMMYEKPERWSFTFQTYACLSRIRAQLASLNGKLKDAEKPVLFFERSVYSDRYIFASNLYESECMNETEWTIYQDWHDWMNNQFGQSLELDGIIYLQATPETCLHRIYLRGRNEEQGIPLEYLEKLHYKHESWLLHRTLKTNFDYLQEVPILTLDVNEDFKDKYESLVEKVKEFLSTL
Chain of Casein kinase I isoform gamma-1 (Q9HCP0 whole entry, canonical isoform): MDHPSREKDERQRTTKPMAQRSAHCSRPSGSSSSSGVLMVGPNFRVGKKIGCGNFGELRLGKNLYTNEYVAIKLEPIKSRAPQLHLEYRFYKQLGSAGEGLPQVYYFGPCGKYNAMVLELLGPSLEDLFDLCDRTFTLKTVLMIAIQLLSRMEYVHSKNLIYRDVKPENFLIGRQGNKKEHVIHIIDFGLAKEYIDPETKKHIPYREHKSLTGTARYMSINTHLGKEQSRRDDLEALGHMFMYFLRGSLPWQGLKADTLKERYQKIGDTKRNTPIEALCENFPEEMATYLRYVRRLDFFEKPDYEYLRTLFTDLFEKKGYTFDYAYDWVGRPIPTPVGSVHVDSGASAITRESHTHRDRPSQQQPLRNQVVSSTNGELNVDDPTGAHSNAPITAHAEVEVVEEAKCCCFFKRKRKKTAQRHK
Chain of Casein kinase I isoform alpha (P48729 whole entry, canonical isoform): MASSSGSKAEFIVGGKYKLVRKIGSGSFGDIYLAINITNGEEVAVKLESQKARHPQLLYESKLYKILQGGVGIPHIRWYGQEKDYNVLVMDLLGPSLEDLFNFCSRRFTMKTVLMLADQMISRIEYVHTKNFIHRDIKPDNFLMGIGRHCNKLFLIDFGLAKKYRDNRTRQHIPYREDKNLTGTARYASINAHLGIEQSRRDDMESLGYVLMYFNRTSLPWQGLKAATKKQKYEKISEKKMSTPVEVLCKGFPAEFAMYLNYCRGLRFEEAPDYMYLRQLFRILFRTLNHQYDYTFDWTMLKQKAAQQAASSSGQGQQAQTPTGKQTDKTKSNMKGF
Chain of Serine/threonine-protein kinase N1 (Q16512 whole entry): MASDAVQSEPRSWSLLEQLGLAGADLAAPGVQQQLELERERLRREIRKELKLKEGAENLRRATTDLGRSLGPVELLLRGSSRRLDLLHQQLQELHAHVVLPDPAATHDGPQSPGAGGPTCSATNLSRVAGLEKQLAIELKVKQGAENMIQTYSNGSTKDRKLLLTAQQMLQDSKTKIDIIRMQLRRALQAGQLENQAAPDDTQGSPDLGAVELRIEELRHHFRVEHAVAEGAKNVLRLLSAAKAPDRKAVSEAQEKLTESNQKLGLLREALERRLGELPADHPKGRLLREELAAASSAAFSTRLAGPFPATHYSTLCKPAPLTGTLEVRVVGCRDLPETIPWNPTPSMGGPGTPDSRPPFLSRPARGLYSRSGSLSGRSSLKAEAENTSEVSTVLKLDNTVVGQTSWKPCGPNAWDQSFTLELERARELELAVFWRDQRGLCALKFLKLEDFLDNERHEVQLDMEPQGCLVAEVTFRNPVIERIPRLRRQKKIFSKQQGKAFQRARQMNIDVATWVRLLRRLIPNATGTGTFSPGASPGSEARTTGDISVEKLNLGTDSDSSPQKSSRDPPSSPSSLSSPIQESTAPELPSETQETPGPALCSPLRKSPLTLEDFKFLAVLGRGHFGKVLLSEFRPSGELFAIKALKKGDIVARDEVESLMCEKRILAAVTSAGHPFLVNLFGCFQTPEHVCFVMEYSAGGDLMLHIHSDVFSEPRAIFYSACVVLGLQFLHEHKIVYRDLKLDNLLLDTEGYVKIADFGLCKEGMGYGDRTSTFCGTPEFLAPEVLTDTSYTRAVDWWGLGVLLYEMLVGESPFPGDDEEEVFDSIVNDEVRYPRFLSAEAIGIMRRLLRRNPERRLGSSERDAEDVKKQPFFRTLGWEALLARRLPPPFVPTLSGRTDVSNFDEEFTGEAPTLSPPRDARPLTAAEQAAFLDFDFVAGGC
Chain of Casein kinase II subunit alpha' (P19784 whole entry): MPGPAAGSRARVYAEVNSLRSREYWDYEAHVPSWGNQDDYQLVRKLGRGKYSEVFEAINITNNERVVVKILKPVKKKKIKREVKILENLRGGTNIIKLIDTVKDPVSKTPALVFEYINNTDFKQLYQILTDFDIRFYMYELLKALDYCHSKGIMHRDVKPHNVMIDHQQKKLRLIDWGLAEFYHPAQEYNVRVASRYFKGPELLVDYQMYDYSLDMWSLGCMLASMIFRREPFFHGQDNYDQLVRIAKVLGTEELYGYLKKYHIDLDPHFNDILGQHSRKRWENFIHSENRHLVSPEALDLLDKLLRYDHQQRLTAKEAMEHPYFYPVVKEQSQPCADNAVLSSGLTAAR
Chain of Aurora kinase B (Q96GD4 whole entry): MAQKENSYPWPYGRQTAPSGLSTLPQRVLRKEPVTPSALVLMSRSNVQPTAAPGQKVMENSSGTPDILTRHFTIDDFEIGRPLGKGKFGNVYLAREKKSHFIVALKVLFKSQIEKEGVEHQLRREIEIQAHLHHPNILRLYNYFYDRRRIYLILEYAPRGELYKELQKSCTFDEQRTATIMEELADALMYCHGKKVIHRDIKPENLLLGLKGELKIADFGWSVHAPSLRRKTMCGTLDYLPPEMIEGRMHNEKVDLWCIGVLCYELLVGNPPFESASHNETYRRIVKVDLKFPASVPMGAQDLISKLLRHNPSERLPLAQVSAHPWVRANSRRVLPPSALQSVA
Chain of Serine/threonine-protein kinase MRCK beta (Q9Y5S2 whole entry): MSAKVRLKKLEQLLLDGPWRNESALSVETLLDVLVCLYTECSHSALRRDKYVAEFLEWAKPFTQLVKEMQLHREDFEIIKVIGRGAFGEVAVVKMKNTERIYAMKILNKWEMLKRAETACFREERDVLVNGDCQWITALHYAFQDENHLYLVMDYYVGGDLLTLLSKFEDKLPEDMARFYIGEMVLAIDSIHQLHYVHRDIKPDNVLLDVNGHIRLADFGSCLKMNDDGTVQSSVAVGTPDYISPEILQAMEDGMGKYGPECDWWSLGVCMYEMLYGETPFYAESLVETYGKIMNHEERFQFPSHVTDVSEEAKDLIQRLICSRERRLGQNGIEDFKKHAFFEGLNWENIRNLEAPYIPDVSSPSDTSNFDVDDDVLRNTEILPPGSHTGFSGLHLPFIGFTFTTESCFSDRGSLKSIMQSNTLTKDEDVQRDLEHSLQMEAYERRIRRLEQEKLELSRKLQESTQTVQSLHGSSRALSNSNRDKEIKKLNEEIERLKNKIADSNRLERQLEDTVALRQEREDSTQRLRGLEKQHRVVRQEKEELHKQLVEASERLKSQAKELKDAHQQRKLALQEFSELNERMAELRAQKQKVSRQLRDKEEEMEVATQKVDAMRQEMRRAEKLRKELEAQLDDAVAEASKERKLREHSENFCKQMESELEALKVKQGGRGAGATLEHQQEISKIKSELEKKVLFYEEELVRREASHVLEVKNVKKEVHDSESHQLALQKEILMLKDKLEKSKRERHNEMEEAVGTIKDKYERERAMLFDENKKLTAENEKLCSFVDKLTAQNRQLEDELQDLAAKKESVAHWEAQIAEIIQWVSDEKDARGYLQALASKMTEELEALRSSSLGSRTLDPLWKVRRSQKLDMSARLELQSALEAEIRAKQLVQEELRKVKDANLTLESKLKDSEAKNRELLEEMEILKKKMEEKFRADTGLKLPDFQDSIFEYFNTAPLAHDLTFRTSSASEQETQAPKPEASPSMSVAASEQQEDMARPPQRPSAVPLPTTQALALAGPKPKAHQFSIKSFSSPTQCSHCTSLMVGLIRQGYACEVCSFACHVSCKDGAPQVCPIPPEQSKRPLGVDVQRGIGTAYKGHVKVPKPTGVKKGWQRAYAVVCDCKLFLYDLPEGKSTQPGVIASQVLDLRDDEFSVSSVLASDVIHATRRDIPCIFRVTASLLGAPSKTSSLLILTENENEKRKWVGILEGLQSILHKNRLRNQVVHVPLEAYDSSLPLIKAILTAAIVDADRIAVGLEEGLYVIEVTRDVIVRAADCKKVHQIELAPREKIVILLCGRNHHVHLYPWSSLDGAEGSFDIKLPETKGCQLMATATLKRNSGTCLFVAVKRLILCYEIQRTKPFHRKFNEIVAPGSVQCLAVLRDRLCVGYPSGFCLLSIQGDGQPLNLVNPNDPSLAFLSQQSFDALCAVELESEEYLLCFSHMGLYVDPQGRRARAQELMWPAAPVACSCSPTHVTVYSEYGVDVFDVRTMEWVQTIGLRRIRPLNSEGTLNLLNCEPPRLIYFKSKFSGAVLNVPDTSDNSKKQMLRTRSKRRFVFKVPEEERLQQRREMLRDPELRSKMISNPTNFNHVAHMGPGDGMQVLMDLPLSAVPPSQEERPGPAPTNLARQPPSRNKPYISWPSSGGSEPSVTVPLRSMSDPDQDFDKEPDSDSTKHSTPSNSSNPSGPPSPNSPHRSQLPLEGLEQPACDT

| Kd [1] | Kd (Deoxycytidine kinase) | Kd [2] | Kd (TGF-beta receptor type-1) | Kd (Scaffold protein ILK) | Kd [3] | Kd [5] | Kd [6] | Kd (Aurora kinase B) | Kd [7] | Kd [8] | Structure (SMILES) | Kd [4] |
| --- | --- | --- | --- | --- | --- | --- | --- | --- | --- | --- | --- | --- |
| > 30 µM (inactive) | > 30 µM (inactive) | > 30 µM (inactive) | > 30 µM (inactive) | > 30 µM (inactive) | > 30 µM (inactive) | 3.96 µM (active) | > 30 µM (inactive) | 1.56 µM (active) | > 30 µM (inactive) | > 30 µM (inactive) | Cc1cc(Nc2nc(N[C@@H](C)c3ncc(F)cn3)ncc2Cl)n[nH]1 [AZD-1480] | > 30 µM (inactive) |
| > 30 µM (inactive) | > 30 µM (inactive) | > 30 µM (inactive) | > 30 µM (inactive) | > 30 µM (inactive) | 0.282 µM (active) | 0.584 µM (active) | > 30 µM (inactive) | > 30 µM (inactive) | > 30 µM (inactive) | 5.16 µM (active) | c1cc(OCCN2CCCCC2)cc(-c2n[nH]c3ccc(-c4nc[nH]n4)cc23)c1 [CC-401] | > 30 µM (inactive) |
| > 30 µM (inactive) | > 30 µM (inactive) | > 30 µM (inactive) | > 30 µM (inactive) | > 30 µM (inactive) | > 30 µM (inactive) | > 30 µM (inactive) | > 30 µM (inactive) | > 30 µM (inactive) | > 30 µM (inactive) | > 30 µM (inactive) | COc1cc2ncnc(Nc3ccc(F)c(Cl)c3)c2cc1NC(=O)/C=C/CN1CCCCC1 [DACOMITINIB ANHYDROUS] | > 30 µM (inactive) |
| > 30 µM (inactive) | > 30 µM (inactive) | 49.8 µM (active) | > 30 µM (inactive) | > 30 µM (inactive) | > 30 µM (inactive) | 3.23 µM (active) | 0.116 µM (active) | > 30 µM (inactive) | > 30 µM (inactive) | > 30 µM (inactive) | CC[C@@](C)(Nc1ccnc(-c2c[nH]c3ncccc23)n1)C(=O)NCC(F)(F)F [DECERNOTINIB] | > 30 µM (inactive) |
| > 30 µM (inactive) | > 30 µM (inactive) | > 30 µM (inactive) | > 30 µM (inactive) | > 30 µM (inactive) | > 30 µM (inactive) | > 30 µM (inactive) | > 30 µM (inactive) | > 30 µM (inactive) | > 30 µM (inactive) | > 30 µM (inactive) | C#Cc1cccc(Nc2ncnc3cc4c(cc23)OCCOCCOCCO4)c1 [ICOTINIB] | > 30 µM (inactive) |
| > 30 µM (inactive) | > 30 µM (inactive) | > 30 µM (inactive) | > 30 µM (inactive) | > 30 µM (inactive) | > 30 µM (inactive) | > 30 µM (inactive) | > 30 µM (inactive) | > 30 µM (inactive) | > 30 µM (inactive) | > 30 µM (inactive) | COc1cc2ncnc3c2cc1OCCCCCN(C)Cc1ccc(Br)cc1N3 [JNJ-26483327] | > 30 µM (inactive) |
| > 30 µM (inactive) | > 30 µM (inactive) | > 30 µM (inactive) | > 30 µM (inactive) | > 30 µM (inactive) | > 30 µM (inactive) | > 30 µM (inactive) | > 30 µM (inactive) | > 30 µM (inactive) | > 30 µM (inactive) | > 30 µM (inactive) | Cc1ccc(C(=O)Nc2ccc(Oc3cc4cnn(C)c4cc3-c3cn[nH]c3)c(F)c2)c(=O)n1-c1ccc(F)cc1 [MERESTINIB] | > 30 µM (inactive) |
| > 30 µM (inactive) | > 30 µM (inactive) | > 30 µM (inactive) | > 30 µM (inactive) | > 30 µM (inactive) | > 30 µM (inactive) | > 30 µM (inactive) | > 30 µM (inactive) | > 30 µM (inactive) | > 30 µM (inactive) | > 30 µM (inactive) | O=C(NOC[C@H](O)CO)c1ccc(F)c(F)c1Nc1ccc(I)cc1F [MIRDAMETINIB] | > 30 µM (inactive) |
| > 30 µM (inactive) | > 30 µM (inactive) | > 30 µM (inactive) | 0.78 µM (active) | > 30 µM (inactive) | > 30 µM (inactive) | 1.6 µM (active) | > 30 µM (inactive) | > 30 µM (inactive) | > 30 µM (inactive) | > 30 µM (inactive) | COc1cccc2cc(-c3nc([C@H]4CC[C@H](C(=O)O)CC4)n4ncnc(N)c34)[nH]c12 [OSI-027] | > 30 µM (inactive) |
| > 30 µM (inactive) | > 30 µM (inactive) | > 30 µM (inactive) | > 30 µM (inactive) | > 30 µM (inactive) | > 30 µM (inactive) | > 30 µM (inactive) | > 30 µM (inactive) | > 30 µM (inactive) | > 30 µM (inactive) | > 30 µM (inactive) | O=C(Nc1ccc(OC(F)(F)F)cc1)c1sccc1NCc1ccnc2ccccc12 [OSI-930] | > 30 µM (inactive) |

| Structure (SMILES) | Kd [1] | Kd (Deoxycytidine kinase) | Kd [2] | Kd (TGF-beta receptor type-1) | Kd (Scaffold protein ILK) | Kd [3] | Kd [5] | Kd [6] | Kd (Aurora kinase B) | Kd [7] | Kd [8] | Kd [4] |
| --- | --- | --- | --- | --- | --- | --- | --- | --- | --- | --- | --- | --- |
| NC[C@@](O)(c1ccc(Cl)cc1)c1ccc(-c2cn[nH]c2)cc1 [AT-13148] | > 30 µM (inactive) | > 30 µM (inactive) | 0.025 µM (active) | > 30 µM (inactive) | > 30 µM (inactive) | > 30 µM (inactive) | > 30 µM (inactive) | > 30 µM (inactive) | > 30 µM (inactive) | > 30 µM (inactive) | > 30 µM (inactive) | > 30 µM (inactive) |
| CC1(COc2ccc3c(c2)ncn3-c2ccc3cccc(N4CCC(N)CC4)c3n2)COC1 [CRENOLANIB] | > 30 µM (inactive) | > 30 µM (inactive) | 0.165 µM (active) | > 30 µM (inactive) | 1.33 µM | > 30 µM (inactive) | > 30 µM (inactive) | > 30 µM (inactive) | > 30 µM (inactive) | > 30 µM (inactive) | > 30 µM (inactive) | > 30 µM (inactive) |
| CNC(=O)c1ccc(Nc2ncc(C(F)(F)F)c(NCc3nccnc3N(C)S(C)(=O)=O)n2)cc1 [DEFACTINIB] | > 30 µM (inactive) | > 30 µM (inactive) | > 30 µM (inactive) | > 30 µM (inactive) | > 30 µM (inactive) | > 30 µM (inactive) | 1.2 µM (active) | > 30 µM (inactive) | 1.46 µM (active) | > 30 µM (inactive) | > 30 µM (inactive) | > 30 µM (inactive) |
| Cc1c(Cn2c(C)nc3c(C(=O)O)cc(N4CCOCC4)cc32)cccc1C(F)(F)F [GSK-2636771] | > 30 µM (inactive) | > 30 µM (inactive) | > 30 µM (inactive) | > 30 µM (inactive) | > 30 µM (inactive) | > 30 µM (inactive) | > 30 µM (inactive) | > 30 µM (inactive) | > 30 µM (inactive) | > 30 µM (inactive) | > 30 µM (inactive) | > 30 µM (inactive) |
